Laboratory results: patent publication US11702417B2, “Compounds for improving mRNA splicing” (The General Hospital Corporation, priority 2015, dated 2023)

System: FD (familial dysautomonia) IKBKAP minigene, exon 20 inclusion, in HEK293T cells
Assay: Primary splicing assay (FD IKBKAP minigene, Firefly/Renilla luciferase reporter in HEK293T)
Format: cell-based, human
Details: Homo sapiens, HEK-293T, Firefly/Renilla ratio, 24 hours of treatment; for EC (maximum kinetin efficacy): HEK293T, read-out: ECk (compound concentration at which the maximum kinetin efficacy (200 μM) is reached); for Emax: max efficacy in Primary Assay, kinetin and DMSO as positive and negative controls, read-out: Emax (%)
Description: As used herein, the expression “ECk” refers to the compound concentration at which the maximum kinetin efficacy (200 μM) is reached.
Splicing analysis was made possible by using an FD (familial dysautomonia) IKBKAP minigene which contained exon 19 through exon 21, including intervening introns, and also the T→C Thymine to cytosine transition located 6 base-pairs from the end of IKBKAP exon 20; See SEQ ID NO:3 for the complete sequence of plasmid pcDNA3.1/V5HisTOPO with Renilla-Familial Dysautonomia minigene-Firefly. Firefly luciferase (SEQ ID NO:14) was utilized as a splicing reporter, located downstream of exon 21, and Renilla luciferase (SEQ ID NO:13) was used as a control, located upstream of exon 19. The sequence of exon 19 is presented as SEQ ID NO:7; the Intron between Exon 19 and Exon 20 is SEQ ID NO:8; exon 20 is SEQ ID NO:9; the intron between […]; exon 21 is SEQ ID NO: 11, and the spliced sequence of exons 19-20-21 is SEQ ID NO:12. HEK293T cells were plated in a 6-well plate 24 hours prior to transfection. Transfection was carried out using a mixture of Opti-MEM (GIBCO ref. 31985), IKBKAP minigene, and Fugene HID (PROMEGA ref. E2311), incubated in DMEM media containing HEK293T cells at 37° C. The ratio of Opti-MEM, minigene, and Fugene was kept at approximately 9:1.5:1, with a total volume of 150 μL of transfection mixture applied per well.
After 4 hours of transfection, the cells were then plated in a 96-well plate coated with poly-L-lysine (SIGMA cat.P4707) for treatment scheduled 24 hours later. […] After 24 hours of treatment, cells were washed in the poly-L-lysine coated 96-well plate using PBS and subsequently harvested using Passive Lysis Buffer (Promega cat.E196). Cell lysate was transferred to a black and white 96-well plate and analyzed for splicing correction using a Glomax luminometer (PROMEGA GloMax® 96 Microplate Luminometer w/Dual Injectors cat.E6521) and Promega Dual Glo Firefly and Stop and Glo Renilla reagents (Cat.E196). The compound's ability to correct splicing and promote exon 20 inclusion was marked by an increase in Firefly signal. Renilla signal, which is independent of exon 20 inclusion, was used to correct for cell number. Using the ratio of Firefly to Renilla signal, a dose response curve was produced, which referenced kinetin and DMSO Firefly/Renilla ratios as positive and negative controls, respectively.

For OCCn1ncc2c(NCc3ccco3)nc(Cl)nc21 [(209)], the EC (maximum kinetin efficacy) was 12.2 µM and the Emax was 176%.

Work on Clc1nc(NCc2ccncn2)c2c(Cl)c[nH]c2n1 [(210)] yielded an EC (maximum kinetin efficacy) of 69.2 µM and an Emax of 104%.

Compound OCCn1cc(Cl)c2c(NCc3ccco3)nc(Cl)nc21 [(211)] has an EC (maximum kinetin efficacy) of 7.73 µM and an Emax of 204%.

FCCn1cc(Cl)c2c(NCc3ccco3)nc(Cl)nc21 [(212)] gave an Emax of 71%.

CNCCn1ccc2c(NCc3ccco3)nc(Cl)nc21 [(213)] showed an Emax of 36%.

FCCn1ncc2c(NCc3ccco3)nc(Cl)nc21 [(214)] was tested, and the EC (maximum kinetin efficacy) was 11.2 µM and the Emax was 197%.

C[C@@H](C#N)n1ccc2c(NCc3ccco3)nc(Cl)nc21 [(216)] showed an Emax of 16%.

Work on Clc1nc(NCc2ccncc2)c2cn[nH]c2n1 [(217)] yielded an EC (maximum kinetin efficacy) of 7.07 µM and an Emax of 151%.

OCCn1ncc2c(NCc3ccncc3)nc(Cl)nc21 [(218)] gave an EC (maximum kinetin efficacy) of 21 µM and an Emax of 154%.

With Clc1nc(NCc2ccncn2)c2cn[nH]c2n1 [(220)] the EC (maximum kinetin efficacy) was 8.62 µM and the Emax was 153%.

With O=C(NCCO)c1cc2c(NCc3ccco3)nc(Cl)nc2[nH]1 [(221)] the Emax was 86%.

Clc1nc(NCc2nccs2)c2cn[nH]c2n1 [(222)] was tested, and the EC (maximum kinetin efficacy) was 8.99 µM and the Emax was 146%.

N#Cc1cc2c(NCc3ccco3)nc(Cl)nc2[nH]1 [(223)] was tested, and the Emax was 95%.

N#CCc1nc2c(NCc3ccco3)nc(Cl)nc2[nH]1 [(224)] gave an EC (maximum kinetin efficacy) of 9.49 µM and an Emax of 139%.

OCCCNc1nc2c(NCc3ccco3)nc(Cl)nc2[nH]1 [(225)] was tested, and the EC (maximum kinetin efficacy) was 21.1 µM and the Emax was 114%.

For Fc1cnccc1CNc1nc(Cl)nc2[nH]ccc12 [(226)], the EC (maximum kinetin efficacy) was 1.8 µM and the Emax was 191%.

With Fc1cnccc1CNc1nc(Cl)nc2[nH]cnc12 [(227)] the EC (maximum kinetin efficacy) was 23.3 µM and the Emax was 163%.

For Clc1nc(NCc2ccncc2Cl)c2cc[nH]c2n1 [(228)], the EC (maximum kinetin efficacy) was 15.7 µM and the Emax was 152%.

For Clc1nc(NCc2ccncc2Cl)c2nc[nH]c2n1 [(229)], the Emax was 55%.

Clc1nc(NCc2ccco2)c2nc(C3CCC3)[nH]c2n1 [(231)] showed an Emax of 77%.

With COC(=O)c1nc2c(NCc3ccco3)nc(Cl)nc2[nH]1 [(232)] the Emax was 59%.

CCOc1nc2c(NCc3ccco3)nc(Cl)nc2[nH]1 [(233)] gave an EC (maximum kinetin efficacy) of 1.59 µM and an Emax of 152%.

Clc1nc(NCc2ccncc2)c2nc(C3CCC3)[nH]c2n1 [(234)] gave an EC (maximum kinetin efficacy) of 19.9 µM and an Emax of 94%.

CNCc1nc2c(NCc3ccco3)nc(Cl)nc2[nH]1 [(235)] gave an Emax of 80%.

Work on Clc1nc(NCc2ccncn2)c2nc(C3CCC3)[nH]c2n1 [(236)] yielded an Emax of 83%.

COc1cc(CNc2nc(Cl)nc3[nH]ccc23)ccn1 [(237)] gave an Emax of 21%.

In the case of NC(=O)c1nc2c(NCc3ccco3)nc(Cl)nc2[nH]1 [(238)], the EC (maximum kinetin efficacy) is reported as 64.8 µM and the Emax is reported as 64%.

With CC(C)Oc1nc2c(NCc3ccco3)nc(Cl)nc2[nH]1 [(239)] the EC (maximum kinetin efficacy) was 2.6 µM and the Emax was 147%.

In the case of Clc1nc(NCc2nccs2)c2nc(C3CCC3)[nH]c2n1 [(240)], the EC (maximum kinetin efficacy) is reported as 18.2 µM and the Emax is reported as 124%.

In the case of COc1cc(CNc2nc(Cl)nc3[nH]cnc23)ccn1 [(241)], the Emax is reported as 13%.

NC(=O)c1nc2c(NCc3ccncc3)nc(Cl)nc2[nH]1 [(242)] was tested, and the Emax was 31%.

With CCNc1nc2c(NCc3ccco3)nc(Cl)nc2[nH]1 [(243)] the EC (maximum kinetin efficacy) was 17 µM and the Emax was 120%.

Work on CNc1nc2c(NCc3ccncc3)nc(Cl)nc2[nH]1 [(244)] yielded an EC (maximum kinetin efficacy) of 7.05 µM and an Emax of 150%.

CNc1nc2c(NCc3nccs3)nc(Cl)nc2[nH]1 [(245)] showed an EC (maximum kinetin efficacy) of 15.4 µM and an Emax of 122%.

For Cc1noc(-c2cc3c(NCc4ccco4)nc(Cl)nc3[nH]2)n1 [(246)], the Emax was 22%.

Work on CNc1nc2c(NCc3ccncn3)nc(Cl)nc2[nH]1 [(247)] yielded an EC (maximum kinetin efficacy) of 5.41 µM and an Emax of 215%.

Compound O=c1cc(CNc2nc(Cl)nc3[nH]ccc23)cc[nH]1 [(248)] has an Emax of 10%.

In the case of OCCCOc1nc2c(NCc3ccco3)nc(Cl)nc2[nH]1 [(249)], the EC (maximum kinetin efficacy) is reported as 0.72 µM and the Emax is reported as 256%.

Work on CNC(=O)c1nc2c(NCc3ccncc3)nc(Cl)nc2[nH]1 [(250)] yielded an EC (maximum kinetin efficacy) of 62.8 µM and an Emax of 63%.

Clc1cc(NCc2ccncc2)c2nc[nH]c2n1 [(251)] showed an EC (maximum kinetin efficacy) of 3.65 µM and an Emax of 258%.

CC(=O)Oc1c[nH]c2nc(Cl)nc(NCc3ccco3)c12 [(252)] showed an Emax of 43%.

With Clc1nc(NCc2ccco2)c2ncsc2n1 [(253)] the EC (maximum kinetin efficacy) was 11.8 µM and the Emax was 187%.

With OCCn1cnc2c(NCc3ccco3)cc(Cl)nc21 [(254)] the EC (maximum kinetin efficacy) was 13.2 µM and the Emax was 145%.

In the case of O=c1cc(CNc2nc(Cl)nc3[nH]cnc23)cc[nH]1 [(255)], the Emax is reported as 42%.

Clc1nc(NCc2ccncc2)c2ncsc2n1 [(256)] gave an EC (maximum kinetin efficacy) of 17.4 µM and an Emax of 129%.

O=C1Cc2c(NCc3ccncc3)nc(Cl)nc2N1 [(257)] showed an Emax of 62%.

Compound CNC(=O)c1nc2c(NCc3ccncn3)nc(Cl)nc2[nH]1 [(258)] has an EC (maximum kinetin efficacy) of 15.8 µM and an Emax of 165%.

Clc1nc(NCc2ccco2)c2nc(OC3CCC3)[nH]c2n1 [(259)] was tested, and the EC (maximum kinetin efficacy) was 0.38 µM and the Emax was 109%.

With CCOc1nc2c(NCc3nccs3)nc(Cl)nc2[nH]1 [(260)] the EC (maximum kinetin efficacy) was 3.43 µM and the Emax was 130%.

In the case of COc1nc2c(NCc3ccncn3)nc(Cl)nc2[nH]1 [(261)], the EC (maximum kinetin efficacy) is reported as 2.62 µM and the Emax is reported as 143%.

Work on CNC(=O)c1nc2c(NCc3ccco3)nc(Cl)nc2[nH]1 [(262)] yielded an EC (maximum kinetin efficacy) of 28.4 µM and an Emax of 64%.

For Cc1cnccc1CNc1nc(Cl)nc2[nH]ccc12 [(263)], the EC (maximum kinetin efficacy) was 27.4 µM and the Emax was 105%.

In the case of Ic1nc(NCc2ccco2)c2nc[nH]c2n1 [(264)], the Emax is reported as 44%.

For Clc1nc(NCc2nccs2)c2nc(OC3COC3)[nH]c2n1 [(265)], the EC (maximum kinetin efficacy) was 7.33 µM and the Emax was 119%.

Compound Brc1nc(NCc2ccco2)c2nc[nH]c2n1 [(266)] has an EC (maximum kinetin efficacy) of 8.52 µM and an Emax of 106%.

Clc1nc(NCc2ccncn2)c2nc(OC3COC3)[nH]c2n1 [(267)] was tested, and the EC (maximum kinetin efficacy) was 2.4 µM and the Emax was 183%.

Cc1cnccc1CNc1nc(Cl)nc2[nH]cnc12 [(268)] showed an Emax of 19%.

Compound Clc1nc(NCc2ccncc2)c2nc(OC3COC3)[nH]c2n1 [(272)] has an EC (maximum kinetin efficacy) of 2.6 µM and an Emax of 155%.

With CCOc1nc2c(NCc3ccncc3)nc(Cl)nc2[nH]1 [(273)] the EC (maximum kinetin efficacy) was 0.62 µM and the Emax was 254%.

For OCCCOc1nc2c(NCc3nccs3)nc(Cl)nc2[nH]1 [(276)], the EC (maximum kinetin efficacy) was 1.13 µM and the Emax was 188%.

In the case of CC(C)Oc1nc2c(NCc3ccncc3)nc(Cl)nc2[nH]1 [(277)], the EC (maximum kinetin efficacy) is reported as 0.46 µM and the Emax is reported as 197%.

Compound COc1nc2c(NCc3nccs3)nc(Cl)nc2n1CCO [(278)] has an EC (maximum kinetin efficacy) of 6.37 µM and an Emax of 141%.

Nc1nc(NCc2ccco2)c2nn[nH]c2n1 [(279)] gave an Emax of 54%.

In the case of CNOc1nc2c(NCc3ccco3)nc(Cl)nc2[nH]1 [(280)], the Emax is reported as 25%.

With Clc1cc(NCc2nccs2)n2ncnc2n1 [(281)] the Emax was 17%.

Work on CCCOc1nc2c(NCc3ccncc3)nc(Cl)nc2[nH]1 [(282)] yielded an EC (maximum kinetin efficacy) of 0.42 µM and an Emax of 233%.

Clc1cc(NCc2ccncc2)n2ncnc2n1 [(283)] gave an Emax of 29%.

Compound Clc1cc(NCc2ccco2)n2ncnc2n1 [(284)] has an Emax of 27%.

In the case of Clc1cc(NCc2ccncn2)n2ncnc2n1 [(286)], the Emax is reported as 38%.

With COc1nc2c(NCc3ccncc3)nc(Cl)nc2n1CCO [(287)] the EC (maximum kinetin efficacy) was 7.56 µM and the Emax was 106%.

In the case of Clc1cc(NCc2ccco2)n2ccnc2n1 [(288)], the Emax is reported as 56%.

Clc1nc(NCc2nccs2)c2nc(OC3CCC3)[nH]c2n1 [(289)] was tested, and the EC (maximum kinetin efficacy) was 0.87 µM and the Emax was 128%.

With COCCOc1nc2c(NCc3ccncc3)nc(Cl)nc2[nH]1 [(290)] the EC (maximum kinetin efficacy) was 2.04 µM and the Emax was 238%.

COCCCOc1nc2c(NCc3ccncc3)nc(Cl)nc2[nH]1 [(291)] was tested, and the EC (maximum kinetin efficacy) was 3.47 µM and the Emax was 165%.

CCCOc1nc2c(NCc3ccco3)nc(Cl)nc2[nH]1 [(292)] showed an EC (maximum kinetin efficacy) of 0.24 µM and an Emax of 312%.
